This data set can be described thus: Measurement of optical absorption spectrum and its pH dependence (ultraviolet visible spectrophotometer). Type of data set: physicochemical. The note with it: for pH dependence of absorption properties: phosphate buffers of various pH, 30% by volume DMSO; for pH dependence of absorption properties / absorption maxima: 1 μM; for shift of maximum absorption wavelength / absorption maxima: in DMSO; for shift of maximum absorption wavelength: aryl piperazine cyanines. As for the experimental part:
In order to investigate the optical absorption properties of the synthesized ICG derivatives, absorption spectra were measured and their pH dependence was examined using an ultraviolet visible spectrophotometer at a concentration of 1 μM either in dimethyl sulfoxide (DMSO) or in phosphate buffers of various pH with DMSO as a cosolvent (30% by volume of DMSO and 70% by volume of phosphate buffer).
For each ICG derivative, an absorption spectrum consisted of relative absorbance was obtained by setting the absorbance of the absorption peak near 700 nm in DMSO (absorbance at the maximum absorption wavelength) to 1.
The optical absorption spectra of the IGC derivative PBA-Cy was measured at various pH values in the same manner as in Example 1.
The optical absorption properties of the synthesized ICG derivatives (PPA-Cy and SS-PPA-Cy) were investigated in the same manner as in Example 1, and their pH dependence was examined.

Setting [1] is: phosphate buffers of various pH with DMSO as cosolvent, from pH dependence of absorption spectra, read-out: pKa.

Structures can show the parent of a compound that is named as a salt. Where two headings read alike, the source gives them in different places.

For the compound `CC1(C)C(/C=C/C2=C(N3CCN(Cc4ccc(CC(=O)O)cc4)CC3)C(=C/C=C3/N(CCCS(=O)(=O)[O-])c4ccc5ccccc5c4C3(C)C)/CCC2)=[N+](CCCS(=O)(=O)[O-])c2ccc3ccccc3c21.[Na+]` [PBA-Cy, 2-[2-[3-[2-[1,3-dihydro-3,3-dimethyl-1-(3-sulfopropyl)-2H-benz[e]indol-2-ylidene]ethylidene]-2-[1-(4-carboxymethylbenzyl)-piperazinyl]-1-cyclohexen-1-yl]ethenyl]-3,3-dimethyl-1-(3-sulfopropyl)-3H-benz[e]indolium, Inner Salt, Sodium Salt], the “pH dependence of absorption properties” value is “shifted to the longer wavelength side as the pH became more acidic”. Besides, the pKa under setting [1] came to 4.9. Also, the molar absorption coefficient (used to calculate PBA-Cy concentration in conjugate solution) is reported as 32,000 M^−1 cm^−1.
As to “2-[2-[3-[2-[1,3-dihydro-3,3-dimethyl-1-(3-sulfopropyl)-2H-benz[e]indol-2-ylidene]ethylidene]-2- [1-(4-nitrophenyl)-piperazinyl]-1-cyclohexen-1-yl]ethenyl]-3,3-dimethyl-1-(3-sulfopropyl)-3H-benz[e]indolium, Inner Salt, Sodium Salt [Nitro-PhP-Cy]”, the “shift of maximum absorption wavelength” value is reported as “the maximum absorption wavelength was shifted to the longer wavelength side”.
As to `CC1(C)C(=CC=C2CCCC(C=CC3=[N+](CCCS(=O)(=O)[O-])c4ccc5ccccc5c4C3(C)C)=C2N2CC[N+](C)(C)CC2)N(CCCS(=O)(=O)[O-])c2ccc3ccccc3c21` [DMP-Cy, 2-[2-[3-[2-[1,3-dihydro-3,3-dimethyl-1-(3-sulfopropyl)-2H-benz[e]indol-2-ylidene]ethylidene]-2-(4-dimethyl-1-piperaziniumyl)-1-cyclohexen-1-yl]ethenyl]-3,3-dimethyl-1-(3-sulfopropyl)-3H-benz[e]indolium, Inner Salt, Sodium Salt], the absorption maxima result is “around 800 nm”.
Turning to `CC1(C)C(/C=C/C2=C(N3CCOCC3)C(=C/C=C3/N(CCCS(=O)(=O)[O-])c4ccc5ccccc5c4C3(C)C)/CCC2)=[N+](CCCS(=O)(=O)[O-])c2ccc3ccccc3c21.[Na+]` [Mor-Cy, 2-[2-[3-[2-[1,3-dihydro-3,3-dimethyl-1-(3-sulfopropyl)-2H-benz[e]indol-2-ylidene]ethylidene]-2-(4-morpholinyl)-1-cyclohexen-1-yl]ethenyl]-3,3-dimethyl-1-(3-sulfopropyl)-3H-benz[e]indolium, Inner Salt, Sodium Salt], the absorption maxima is recorded as about 700 nm and the “pH dependence of absorption properties” value is given as “no change in absorption properties due to the pH”.
For the compound “2-[2-[3-[2-[1,3-dihydro-3,3-dimethyl-1-(3-sulfopropyl)-2H-benz[e]indol-2-ylidene]ethylidene]-2-(4-methylsulfonyl-1-piperazinyl)-1-cyclohexen-1-yl]ethenyl]-3,3-dimethyl-1-(3-sulfopropyl)-3H-benz[e]indolium, Inner Salt, Sodium Salt [MSP-Cy]”, the absorption maxima result is “around 800 nm”.
In the case of “2-[2-[3-[2-[1,3-Dihydro-3,3-dimethyl-1-(3-sulfopropyl)-2H-benz[e]indol-2-ylidene]ethylidene]-2-(4-acetyl-1-piperazinyl)-1-cyclohexen-1-yl]ethenyl]-3,3-dimethyl-1-(3-sulfopropyl)-3H-benz[e]indolium, Inner Salt, Sodium Salt [AcP-Cy]”, the absorption maxima entry is on record as “around 800 nm”.
Regarding “2-[2-[3-[2-[1,3-dihydro-3,3-dimethyl-1-(3-sulfopropyl)-2H-benz[e]indol-2-ylidene]ethylidene]-2-(4-methyl-1-piperazinyl)-1-cyclohexen-1-yl]ethenyl]-3,3-dimethyl-1-(3-sulfopropyl)-3H-benz[e]indolium, Inner Salt, Sodium Salt [MP-Cy]”, the absorption maxima was about 700 nm and the “pH dependence of absorption properties” value is on record as “the maximum absorption wavelength shifted to the longer wavelength side as the pH became more acidic”.
Regarding “2-[2-[2-[4-(2-carboxyethyl)piperazinyl]-3-[2-[1,3-dihydro-3,3-dimethyl-1-(3-sulfopropyl)-7-sulfo-2H-benz[e]indol-2-ylidene]ethylidene]cyclohexen-1-yl]ethenyl]-3,3-dimethyl-1-(3-sulfopropyl)-7-sulfo-3H-benz[e]indolium, Inner Salt, Sodium Salt [SS-PPA-Cy]”, the pKa worked out at 6.8 and the “pH dependence of absorption properties” value is “the maximum absorption wavelength shifted to the longer wavelength side as the pH became more acidic”.
In the case of `CC1(C)C(=CC=C2CCCC(C=CC3=[N+](CCCS(=O)(=O)[O-])c4ccc5ccccc5c4C3(C)C)=C2N2CCCCC2)N(CCCS(=O)(=O)[O-])c2ccc3ccccc3c21.[Na+]` [Piperi-Cy, 2-[2-[3-[2-[1,3-dihydro-3,3-dimethyl-1-(3-sulfopropyl)-2H-benz[e]indol-2-ylidene]ethylidene]-2-(1-piperidinyl)-1-cyclohexen-1-yl]ethenyl]-3,3-dimethyl-1-(3-sulfopropyl)-3H-benz[e]indolium, Inner Salt, Sodium Salt], the absorption maxima is about 700 nm.
“2-[2-[3-[2-[1,3-dihydro-3,3-dimethyl-1-(3-sulfopropyl)-2H-benz[e]indol-2-ylidene]ethylidene]-2-[1-(4-cyanophenyl)-piperazinyl]-1-cyclohexen-1-yl]ethenyl]-3,3-dimethyl-1-(3-sulfopropyl)-3H-benz[e]indolium, Inner Salt, Sodium Salt [Nitrille-PhP-Cy]”: the “shift of maximum absorption wavelength” value is reported as “the maximum absorption wavelength was shifted to the longer wavelength side”.
Consider `CC1(C)C(/C=C/C2=C(N3CCN(CCC(=O)[O-])CC3)C(=C/C=C3/N(CCCS(=O)(=O)[O-])c4ccc5ccccc5c4C3(C)C)/CCC2)=[N+](CCCS(=O)(=O)[O-])c2ccc3ccccc3c21.[Na+].[Na+]` [PPA-Cy, 2-[2-[2-[4-(2-carboxyethyl)piperazinyl]-3-[2-[1,3-dihydro-3,3-dimethyl-1-(3-sulfopropyl)-2H-benz[e]indol-2-ylidene]ethylidene]-1-cyclohexenyl]ethenyl]-3,3-dimethyl-1-(3-sulfopropyl)-3H-benz[e]indolium, Inner Salt, Sodium Salt], for which the “pH dependence of absorption properties” value was “the maximum absorption wavelength shifted to the longer wavelength side as the pH became more acidic”. Further, under setting [1], the pKa was determined as 5.7.
